Columns and labels:
[1] = target: T1, SN23-Syn4-Vp8 complex (Rattus norvegicus, UniProt O70377+Q08850+Q9WUF4); experiment: Co-immunoprecipitation of SNARE complexes in activated RBL-2H3 cells, anti-SNAP-23 blot; assay type: cell-based; details: peptides added to the medium after A23187 pretreatment; IP of Vp8, blot anti-SNAP-23 (Figure 4C)
T1 construct: Lysates of RBL-2H3 cells; endogenous in cells; host or cells: RBL-2H3 (ATCC CRL-2256)
T1 sequence (Q08850 1-298): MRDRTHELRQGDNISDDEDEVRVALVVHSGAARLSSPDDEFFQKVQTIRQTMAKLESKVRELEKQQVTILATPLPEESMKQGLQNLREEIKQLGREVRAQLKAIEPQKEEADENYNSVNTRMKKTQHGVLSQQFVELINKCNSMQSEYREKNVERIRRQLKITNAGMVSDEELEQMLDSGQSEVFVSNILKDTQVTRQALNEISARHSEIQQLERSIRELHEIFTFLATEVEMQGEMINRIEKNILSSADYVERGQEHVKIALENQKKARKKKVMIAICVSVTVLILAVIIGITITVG
T1 sequence (O70377 1-210): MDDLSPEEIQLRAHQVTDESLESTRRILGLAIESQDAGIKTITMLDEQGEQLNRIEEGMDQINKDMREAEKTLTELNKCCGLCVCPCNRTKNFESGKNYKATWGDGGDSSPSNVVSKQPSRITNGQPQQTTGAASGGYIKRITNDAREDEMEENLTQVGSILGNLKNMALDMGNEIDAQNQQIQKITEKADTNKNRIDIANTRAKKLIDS
T1 sequence (Q9WUF4 1-100): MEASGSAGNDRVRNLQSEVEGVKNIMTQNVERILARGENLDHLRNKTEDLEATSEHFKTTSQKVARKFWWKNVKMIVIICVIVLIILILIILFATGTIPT
Experimental: Lysates of RBL-2H3 cells (0.5–1 × 10^6 cells), which were obtained by the addition of 1 mL lysis buffer (50 mM Tris–HCl, 150 mM NaCl, 1% Triton X-100™, 1 mM EDTA, pH 7.5) supplemented with a protease inhibitor cocktail (Calbiochem®, Merck Millipore, Billerica, MA, USA), were centrifuged at 13,000 g at 4°C to remove cell debris and precleared with 100 µL protein G Sepharose® (GE Healthcare) for 2 h at 4°C. The precleared lysates were incubated with antibodies against SNARE proteins (Syn4, SNAP-23, VAMP2, and VAMP8) for 2 h at 4°C for binding, and then the antibody–antigen complexes were precipitated by incubation with a protein G slurry overnight with constant shaking. After an extensive washing step with lysis buffer, an immunoblotting analysis was performed for the precipitates. The immunoprecipitated proteins and cell lysates were electrophoresed on 12% sodium dodecyl sulfate-polyacrylamide gel electrophoresis gels and then transferred to nitrocellulose blotting membranes (GE Healthcare). After blocking the membranes in TBST (10 mM Tris–HCl, 150 mM NaCl, and 0.05% Tween® 20, pH 8) containing 0.5% BSA and 5% skim milk for 1 h at room temperature, primary anti-SNAP-23 antibody (1:1,000 dilution) in TBST supplemented with 1% BSA and 0.01% sodium azide was added and incubated at 4°C overnight. The membranes were washed with TBST, treated with a horseradish peroxidase-conjugated secondary anti-mouse IgG antibody (A4416, Sigma-Aldrich), and visualized using enhanced chemiluminescence solution for the development of a luminescent signal.

[2] = target: T2, SN23-Syn4-Vp8 SNARE complex (Rattus norvegicus, UniProt O70377+Q08850+Q9WUF4); experiment: SNARE-driven membrane fusion (total lipid mixing) assay with proteoliposomes; assay type: biochemical; details: peptide added after preincubation of T- and V-liposomes at 4°C overnight (partially zippered SNAREs) (Figure 4A)
T2 construct: Syn4 (amino acids 1–298); SNAP-23 (amino acids 1–210); VAMP8 (amino acids 1–100); GST (N, cleaved yes); made in house; host or cells: Escherichia coli Rosetta(DE3)pLysS
T2 sequence (Q08850 1-298): T1 sequence (Q08850 1-298)
T2 sequence (O70377 1-210): T1 sequence (O70377 1-210)
T2 sequence (Q9WUF4 1-100): T1 sequence (Q9WUF4 1-100)

Sequence: LQSEVEGVKNIMTQNVE [Vp8N, 17-mer peptide, N-terminal region of VAMP8 SNARE motif]
- SNARE complex formation in cells (amount of SN23-Syn4-Vp8 complex) [1]: reduced
- inhibition of membrane fusion, peptide added after preincubation [2]: inhibitory activities significantly diminished

Sequence: EDEMEENLTQVGSILGN [SC23N, 17-mer peptide, N-terminal region of SNAP-23 SNARE motif SC23]
- SNARE complex formation in cells (amount of SN23-Syn4-Vp8 complex) [1]: reduced
- inhibition of membrane fusion, peptide added after preincubation [2]: inhibitory activities significantly diminished

Sequence: SARHSEIQQLERTIREL [Syn4N, 17-mer peptide, N-terminal region of syntaxin 4 SNARE motif]
- SNARE complex formation in cells (amount of SN23-Syn4-Vp8 complex) [1]: reduced
- inhibition of membrane fusion, peptide added after preincubation [2]: inhibitory activities significantly diminished
